One assay has as its target HLA-C0304 (Homo sapiens, UniProt P10321, A176E/A330V/A97T/C25G/C350S/D114A/D33Y/E197K/L119I/L127V/L171W/L218V/M285V/M309V/M331V/P208H/Q277E/Q291P/R243W/R45H/S123Y/S140Y/S297R/S48A/T118I/T187L/T329A/T363A/V319A). The experiment in a line: Competitive peptide binding assay, CIR-C0304. The settings on record: HMy2.CIR-C0304 cells, reference Cy5-[…], class from inhibition at 5 and 15 μM, flow cytometry MFI; read-out: Binding affinity with HLA-C0304. As for the experimental part:
(§1) Then, competitive peptide binding assays were performed.
For orientation: A flow cytometer gives signals particle by particle.

For the next assay, the target named is HLA-C0302 (Homo sapiens, UniProt P10321, A176E/A330V/A97T/C25G/C350S/D114A/D33Y/E197K/L127V/L171W/L218V/M285V/M309V/M331V/P208H/Q277E/Q291P/R243W/R45H/S123Y/S297R/S48A/T118I/T187L/T329A/T363A/V319A). Kind of assay: Competitive peptide binding assay, CIR-C0302. Conditions: HMy2.CIR-C0302 cells, reference Cy5-[…], class from inhibition at 5 and 15 μM, flow cytometry MFI; read-out: Binding affinity with HLA-C0302. As for the experimental part: as §1

Another assay concerns the target HLA-C1402 (Homo sapiens, UniProt P10321, A176E/A330V/A35S/A97T/C350S/D114A/D33S/L171W/L180R/L218V/M285V/M309V/M331V/P208H/Q277E/Q291P/R121W/R243W/S123F/S297R/S48A/T329A/T363A/V319A). Kind of assay: Competitive peptide binding assay, CIR-C1402. Conditions: HMy2.CIR-C1402 cells, reference Cy5-[…], class from inhibition at 5 and 15 μM, flow cytometry MFI; read-out: Binding affinity with HLA-C1402. As for the experimental part: as §1

The target of another assay is HLA-C0702 (Homo sapiens, UniProt P10321). Kind of assay: Competitive peptide binding assay, CIR-C0702.
For another assay, the target named is HLA-C0102 (Homo sapiens, UniProt P10321, A176E/A330V/A35S/A97T/C350S/D114A/D33F/L171W/L180R/L218V/M285V/M309V/M331V/P208H/Q277E/Q291P/R121W/R243W/R30K/S123C/S140Y/S297R/T329A/T363A/V272M/V319A). The experiment in a line: Competitive peptide binding assay, CIR-C0102. The settings on record: for inhibition at 15 µM / inhibition at 5 µM: read-out: Inhibition % of Cy5-reference peptide binding. As for the experimental part:
as §1

For another assay, the target named is HLA-C0801 (Homo sapiens, UniProt P10321, A176T/A330V/A97T/C350S/D114A/D138N/D33Y/E201K/E299G/L171W/L218V/M285V/M309V/M331V/P208H/Q277E/Q291P/R59Q/S123Y/S140F/S297R/S48A/T329A/T363A/V319A/V328M). Kind of assay: Competitive peptide binding assay, CIR-C0801. The settings on record: HMy2.CIR-C0801 cells, reference Cy5-[…], class from inhibition at 5 and 15 μM, flow cytometry MFI; read-out: Binding affinity with HLA-C0801. On the procedure:
as §1

Another assay addresses HLA-C0303 (Homo sapiens, UniProt P10321, A176E/A330V/A97T/C25G/C350S/D114A/D33Y/E197K/G115R/L119I/L127V/L171W/L218V/M285V/M309V/M331V/P208H/Q277E/Q291P/R243W/R45H/S123Y/S140Y/S297R/S48A/T118I/T187L/T329A/T363A/V319A). The experiment in a line: Competitive peptide binding assay, CIR-C0303. Conditions: HMy2.CIR-C0303 cells, reference Cy5-[…], class from inhibition at 5 and 15 μM, flow cytometry MFI; read-out: Binding affinity with HLA-C0303. On the procedure: as §1

In another assay the target is HLA-C0401 (Homo sapiens, UniProt P10321, A176E/A330V/A35S/A73E/C25G/C350S/D138N/D33S/E299K/L171W/L180R/L218V/M285V/M309V/M331V/N104K/P208H/Q277E/Q291P/R243W/R38W/S101N/S123F/S140F/S297R/S48A/T329A/T363A/V319A/V327M). The experiment in a line: Competitive peptide binding assay, CIR-C0401. Conditions: HMy2.CIR-C0401 cells, reference Cy5-[…], class from inhibition at 5 and 15 μM, flow cytometry MFI; read-out: Binding affinity with HLA-C0401. On the procedure:
as §1

For another assay, the target named is HLA-C0602 (Homo sapiens, UniProt P10321, A176E/A330V/C350S/L171W/L180W/L218V/M285V/M309V/M331V/N104K/P208H/Q277E/Q291P/R121W/S101N/S123Y/S297R/T329A/T363A/V319A/V328M). Kind of assay: Competitive peptide binding assay, CIR-C0602.
Setting [1] is: HMy2.CIR-C0102 cells, reference Cy5-[…], class from inhibition at 5 and 15 μM, flow cytometry MFI, read-out: Binding affinity with HLA-C0102.

Read-outs that look alike come from different tables or passages of the source. Peptide text beside a SMILES is read from it.

Regarding `CC(C)C[C@H](NC(=O)[C@H](CC(C)C)NC(=O)[C@H](Cc1ccccc1)NC(=O)[C@@H](NC(=O)[C@@H](NC(=O)[C@H](Cc1ccccc1)NC(=O)[C@H](C)NC(=O)[C@H](CC(C)C)NC(=O)[C@@H](N)Cc1ccccc1)C(C)C)C(C)C)C(=O)O` [Epitope M76] (H-FLAFVVFLL-OH; N-terminus and C-terminus assumed), the IC50 was less than 5 µM on HLA-C0304, 5 to 15 µM at HLA-C0302, greater than 15 µM at HLA-C1402 and 5 to 15 µM on HLA-C0702.
On to `CSCC[C@H](NC(=O)[C@H](C)NC(=O)[C@@H]1CCCN1C(=O)[C@H](CC(=O)O)NC(=O)[C@H](C)NC(=O)[C@H](C)NC(=O)[C@H](Cc1ccc(O)cc1)NC(=O)[C@@H](NC(=O)[C@@H](N)CC(C)C)C(C)C)C(=O)O` [Epitope M58] (H-LVYAADPAM-OH; N-terminus and C-terminus assumed), for which the IC50 on HLA-C0102 (setting [1]) was greater than 15 µM; at HLA-C0801 it was greater than 15 µM; at HLA-C0302 it was less than 5 µM; at HLA-C0303, 5 to 15 µM; on HLA-C0401, greater than 15 µM; on HLA-C0702, greater than 15 µM.
Usually inhibition stands for the percentage by which the read-out fell short of the control. On to `CC[C@H](C)[C@H](NC(=O)[C@@H](NC(=O)[C@H](CC(N)=O)NC(=O)[C@H](CCCNC(=N)N)NC(=O)[C@H](CCCCN)NC(=O)[C@@H](NC(=O)[C@H](Cc1ccc(O)cc1)NC(=O)[C@H](C)NC(=O)[C@@H](N)Cc1ccccc1)[C@@H](C)O)C(C)C)C(=O)O` [Epitope M23] (H-FAYTKRNVI-OH; N-terminus and C-terminus assumed), for which the IC50 was 5 to 15 µM on HLA-C0102 (setting [1]), greater than 15 µM on HLA-C0801, less than 5 µM at HLA-C0303 and greater than 15 µM on HLA-C0401. Further, on HLA-C0102, the inhibition at 15 µM is 78.9%.
Turning to `CSCC[C@H](NC(=O)[C@H](CO)NC(=O)[C@H](CCC(N)=O)NC(=O)[C@H](CCC(N)=O)NC(=O)[C@H](CC(C)C)NC(=O)[C@H](CCC(N)=O)NC(=O)[C@H](CCCCN)NC(=O)[C@H](CO)NC(=O)[C@@H](N)Cc1ccccc1)C(=O)O` [Epitope M14] (H-FSKQLQQSM-OH; N-terminus and C-terminus assumed), the IC50 at HLA-C0102 (setting [1]) is greater than 15 µM; on HLA-C0801, greater than 15 µM; on HLA-C0304, 5 to 15 µM; at HLA-C0302 it was less than 5 µM; on HLA-C0303, less than 5 µM; at HLA-C0702 it was 5 to 15 µM.
For the compound `CC(C)C[C@H](NC(=O)[C@@H](NC(=O)[C@@H](NC(=O)CNC(=O)[C@H](CCC(N)=O)NC(=O)[C@@H]1CCCN1C(=O)[C@H](CC(C)C)NC(=O)[C@H](CCC(N)=O)NC(=O)[C@@H](N)CC(C)C)[C@@H](C)O)[C@@H](C)O)C(=O)O` [Epitope M13] (H-LQLPQGTTL-OH; N-terminus and C-terminus assumed), the IC50 is less than 5 µM at HLA-C0304, 5 to 15 µM on HLA-C0401, greater than 15 µM at HLA-C1402 and 5 to 15 µM at HLA-C0702.
For the compound `CC(C)[C@H](NC(=O)[C@@H](NC(=O)[C@H](Cc1ccccc1)NC(=O)[C@@H]1CCCN1C(=O)[C@@H](NC(=O)CNC(=O)[C@H](CC(=O)O)NC(=O)[C@@H](NC(=O)[C@@H](N)Cc1ccccc1)C(C)C)C(C)C)C(C)C)C(=O)O` [Epitope M96] (H-FVDGVPFVV-OH; N-terminus and C-terminus assumed), the IC50 at HLA-C0102 was greater than 15 µM; at HLA-C0801 it was less than 5 µM; on HLA-C0303, greater than 15 µM; on HLA-C1402, 5 to 15 µM; on HLA-C0702, greater than 15 µM. For the same compound, the inhibition at 5 µM at HLA-C0102 was 3.72%. Besides, at HLA-C0102, the inhibition at 15 µM turned out to be 20.7%.
`CC[C@H](C)[C@H](N)C(=O)N[C@H](C(=O)N[C@@H](CC(N)=O)C(=O)N[C@@H](CO)C(=O)N[C@H](C(=O)N[C@@H](CC(C)C)C(=O)N[C@@H](CC(C)C)C(=O)N[C@@H](Cc1ccccc1)C(=O)N[C@@H](CC(C)C)C(=O)O)C(C)C)C(C)C` [Epitope M7] (H-IVNSVLLFL-OH; N-terminus and C-terminus assumed): the IC50 is less than 5 µM on HLA-C0102 (setting [1]); greater than 15 µM on HLA-C0304; greater than 15 µM at HLA-C0302; 5 to 15 µM at HLA-C0401; greater than 15 µM on HLA-C1402; 5 to 15 µM at HLA-C0602. At HLA-C0702, this compound showed an IC50 greater than 15 µM.
On to `CSCC[C@H](NC(=O)[C@H](C)NC(=O)[C@@H](N)Cc1ccccc1)C(=O)N[C@@H](CCC(N)=O)C(=O)N[C@@H](CCSC)C(=O)N[C@@H](C)C(=O)N[C@@H](Cc1ccc(O)cc1)C(=O)N[C@@H](CCCNC(=N)N)C(=O)N[C@@H](Cc1ccccc1)C(=O)O` [Epitope M63], for which the IC50 is greater than 15 µM on HLA-C0102 (setting [1]); greater than 15 µM at HLA-C0801; less than 5 µM at HLA-C0302; 5 to 15 µM at HLA-C0303; greater than 15 µM at HLA-C0401; greater than 15 µM on HLA-C0602. Besides, on HLA-C0702, the IC50 is greater than 15 µM.
Turning to `CC(C)[C@H](NC(=O)CNC(=O)[C@H](Cc1c[nH]cn1)NC(=O)[C@@H]1CCCN1C(=O)[C@H](C)NC(=O)[C@H](CO)NC(=O)[C@@H](N)CCC(N)=O)C(=O)N[C@H](C(=O)N[C@@H](Cc1ccccc1)C(=O)O)C(C)C` [Epitope M69] (H-QSAPHGVVF-OH; N-terminus and C-terminus assumed), the IC50 at HLA-C0102 (setting [1]), on HLA-C0801, on HLA-C0401, at HLA-C1402 and on HLA-C0602 was greater than 15 µM each time.
With `CC(C)C[C@H](NC(=O)[C@H](CC(C)C)NC(=O)[C@H](Cc1ccccc1)NC(=O)[C@@H](NC(=O)[C@H](CCCNC(=N)N)NC(=O)[C@@H]1CCCN1C(=O)[C@H](CCC(N)=O)NC(=O)[C@H](CC(C)C)NC(=O)[C@@H](N)Cc1ccc(O)cc1)[C@@H](C)O)C(=O)O` [Epitope M35] (H-YLQPRTFLL-OH; N-terminus and C-terminus assumed), the IC50 on HLA-C0102 (setting [1]) is greater than 15 µM; at HLA-C0304 it was greater than 15 µM; on HLA-C0302, greater than 15 µM; on HLA-C1402, 5 to 15 µM; on HLA-C0702, less than 5 µM.
As to `CC[C@H](C)[C@H](N)C(=O)N[C@@H](C)C(=O)N[C@@H](CC(N)=O)C(=O)N[C@@H](CCC(N)=O)C(=O)N[C@@H](Cc1ccccc1)C(=O)N[C@@H](CC(N)=O)C(=O)N[C@@H](CO)C(=O)N[C@@H](C)C(=O)N[C@H](C(=O)O)[C@@H](C)CC` [Epitope M37] (H-IANQFNSAI-OH; N-terminus and C-terminus assumed), the IC50 was less than 5 µM at HLA-C0102 (setting [1]); greater than 15 µM at HLA-C0801; less than 5 µM on HLA-C0303; greater than 15 µM at HLA-C0401; greater than 15 µM on HLA-C0602. The inhibition at 5 µM at HLA-C0102 stood at 68.9%. In addition, the inhibition at 15 µM at HLA-C0102 amounted to 86.1%.

The values above are taken from publication PMC12133982, “Predominant T-cell epitopes of SARS-CoV-2 restricted by multiple prevalent HLA-B and HLA-C allotypes in Northeast Asia” (Frontiers in Immunology, 2025).
